The test system of this assay is heparin in combination with antithrombin of plasma. Kind of assay: Influence of heparin in plasma on amidolytic activity, chromogenic thrombin assay. It counts as biochemical. The following applies: increasing concentrations of heparin in citrated plasma, substrate H-D-Chg-Ala-Arg-pNA. On the procedure: The influence of heparin (Sigma, H-3393) on the amidolytic activity of PEG 5 kD-thrombin conjugate in plasma was compared with its influence on the amidolytic activity of unmodified thrombin using the chromogenic assay for quantitative determination of direct thrombin inhibitors (Example 5): 15 μl of a plasma sample (citrated plasma) were added to 50 μl chromogenic substrate (H-D-Chg-Ala-Arg-pNA, JenAffin GmbH, 3 mM in 0.05M Tris/HCl, 0.1M NaCl, pH 8.0 at 37° C.). Chromogenic reaction was started by addition of 100 μl PEG 5 kD-thrombin conjugate or thrombin, respectively. Increase in optical density (release of p-nitroaniline by cleavage of the chromogenic substrate) was recorded at 405 nm using the measurement device TC4+ (TECO GmbH).

Take “PEG 5 kD-thrombin conjugate: bovine factor IIa (thrombin) coupled with methoxy polyethylene glycol (PEG)-5,000 p-nitrophenyl carbonate”: the “influence of heparin on amidolytic activity” value was “does not influence amidolytic activity”.

“thrombin: bovine factor IIa (thrombin, EC 3.4.21.5, Kordia), unmodified”: the “influence of heparin on amidolytic activity” value is “inhibit amidolytic activity”.
